According to patent publication US6525059B1, “Substituted pyrazoles as p38 kinase inhibitors” (G. D. Searle & Company, priority 1998, dated 2003):
Where two headings read alike, the source gives them in different places.

Legend:
TNF-α = assay: LPS stimulation of TNF production by U937 cells; format: cell-based, human; conditions: for inhibition at 1 µM: U-937, @ 1.0 uM, read-out: U937 Cell % inhib @ conc.
Method: Fifty million cells in 100 ml media were induced to terminal monocytic differentiation by 24 hour incubation with 20 ng/ml phorbol 12-myristate 13-acetate (Sigma). The cells were washed by centrifugation (200×g for 5 min) and resuspended in 100 ml fresh medium. After 24-48 hours, the cells were harvested, centrifuged, and resuspended in culture medium at 2 million cells/ml.
Compounds were prepared as 10 mM stock solutions in DMSO and diluted in culture medium to yield a final DMSO concentration of 0.1% in the cell assay. LPS (E coli, 100 ng/ml final concentration) was then added at a volume of 0.02 ml. After 4 hour incubation at 37° C., the amount of TNF-α released in the culture medium was quantitated by ELISA. Inhibitory potency is expressed as IC50 (μM).
In vitro whole cell assay for measuring the ability of the compounds to inhibit TNF production in human U937 cells stimulated with LPS are shown in the column identified as: […]

human p38 kinase alpha = biological target: T1, human p38 kinase alpha (Homo sapiens, UniProt Q16539); assay: p38 kinase in vitro assay, phosphorylation of biotinylated PHAS-I with gamma 32P-ATP; format: biochemical; conditions: for inhibition at 1 µM / inhibition at 10 µM: read-out: P38 alpha kinase % inhib @ conc.
T1 construct: The coding region of the human p38a cDNA was obtained by PCR-amplification from RNA isolated from the human monocyte cell line THP.1; GST (N); made in house; host or cells: E. coli DH10B
T1 sequence (Q16539 whole entry): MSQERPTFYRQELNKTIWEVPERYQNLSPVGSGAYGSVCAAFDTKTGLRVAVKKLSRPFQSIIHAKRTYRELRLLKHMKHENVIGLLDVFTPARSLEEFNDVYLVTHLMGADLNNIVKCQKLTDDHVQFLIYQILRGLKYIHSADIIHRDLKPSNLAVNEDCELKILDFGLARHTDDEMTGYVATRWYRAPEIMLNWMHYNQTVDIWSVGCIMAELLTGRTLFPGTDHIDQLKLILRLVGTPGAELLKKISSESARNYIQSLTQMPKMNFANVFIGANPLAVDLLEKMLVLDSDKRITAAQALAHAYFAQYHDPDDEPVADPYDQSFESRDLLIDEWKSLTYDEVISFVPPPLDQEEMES
In short: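 Radiometric filter-capture read-out: streptavidin plates trap biotin-PHAS-I labelled by activated (MKK6) human p38α from γ-32P-ATP. Buffer 25 mM HEPES pH 7.5, 10 mM magnesium acetate, 50 μM cold ATP; reactions 1 h or overnight at 30 °C; inhibitors 10-fold dilutions 100 to 0.001 μM, triplicates, 1% DMSO.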

[1] = read-out: P38 alpha kinase IC50
[2] = Homo sapiens, U-937, TNF production, LPS-stimulated human U937 cells, read-out: U937 Cell IC50
[3] = Homo sapiens, U-937, LPS-stimulated U937 cells, read-out: U937 IC50
[4] = p38α in vitro, PHAS-I assay procedure, read-out: p38^1 IC50

CCCCCCCC(=O)NCc1[nH]nc(-c2ccc(F)cc2)c1-c1ccncc1 [Example B-0064]
inhibition at 1 µM (TNF-α; Homo sapiens): 4%
inhibition at 1 µM (human p38 kinase alpha; @ 1.0 uM): 90%

C[C@@H](NC(=O)[C@H]1CCCN1)c1[nH]nc(-c2ccc(F)cc2)c1-c1ccncc1 [Example B-0427]
inhibition at 1 µM (TNF-α; Homo sapiens): 39%
IC50 (human p38 kinase alpha; [1]): 630 nM

CCCCCc1ccc(NC(=O)NCc2[nH]nc(-c3ccc(F)cc3)c2-c2ccncc2)cc1 [Example B-0156]
U937 Cell % inhib @ conc. (TNF-α; @ 1.0 uM): 13.0% @ 1.0 uM
P38 alpha kinase % inhib @ conc. (human p38 kinase alpha; @ 10.0 uM): 42.0% @ 10.0 uM

CNC(=O)NCc1[nH]nc(-c2ccc(F)cc2)c1-c1ccncc1 [Example B-0211]
inhibition at 1 µM (TNF-α; Homo sapiens): 30%
IC50 (human p38 kinase alpha; [1]): 250 nM

C[C@@H](NC(=O)c1cc(F)cc(F)c1)c1[nH]nc(-c2ccc(F)cc2)c1-c1ccncc1 [Example B-0502]
inhibition at 1 µM (TNF-α; Homo sapiens): 48%
IC50 (human p38 kinase alpha; [1]): 65 nM

CC(C)c1ccc(S(=O)(=O)NCc2[nH]nc(-c3ccc(F)cc3)c2-c2ccncc2)cc1 [Example B-0123]
IC50 (TNF-α; [2]): > 1000 nM
inhibition at 1 µM (human p38 kinase alpha; @ 1.0 uM): 59%

Cc1ccc(S(=O)(=O)N[C@@H](Cc2ccccc2)C(=O)N[C@H](C)c2[nH]nc(-c3ccc(F)cc3)c2-c2ccncc2)cc1 [Example B-0383]
inhibition at 1 µM (TNF-α; Homo sapiens): 10%
IC50 (human p38 kinase alpha; [1]): 1430 nM

O=C(NCc1[nH]nc(-c2ccc(F)cc2)c1-c1ccncc1)NC(=O)c1ccccc1 [Example B-0146]
inhibition at 1 µM (TNF-α; Homo sapiens): 28%
inhibition at 10 µM (human p38 kinase alpha; @ 10.0 uM): 77%

CC(C)C(=O)NCc1[nH]nc(-c2ccc(F)cc2)c1-c1ccncc1 [Example B-0010]
IC50 (TNF-α; [2]): 650 nM
IC50 (human p38 kinase alpha; [1]): 520 nM

C=CCOC(=O)NCc1[nH]nc(-c2ccc(F)cc2)c1-c1ccncc1 [Example B-0033]
IC50 (TNF-α; TNF production, LPS-stimulated human U937 cells, read-out: U937 Cell IC50): 10000 nM
P38 alpha kinase % inhib @ conc. (human p38 kinase alpha; @ 1.0 uM): 97.0% @ 1.0 uM

CCCCS(=O)(=O)NCc1[nH]nc(-c2ccc(F)cc2)c1-c1ccncc1 [Example B-0100]
IC50 (TNF-α; [2]): 5000 nM
inhibition at 1 µM (human p38 kinase alpha; @ 1.0 uM): 75%

CCN(CC)CCn1cc(-c2ccnc(F)c2)c(-c2ccc(F)cc2)n1 [Example A-278, N,N-diethyl-3-(4-fluorophenyl)-4-(2-fluoro-4-pyridinyl)-1H-pyrazole-1-ethanamine]
IC50 (TNF-α; [3]): 2300 nM
IC50 (human p38 kinase alpha; [4]): 285 nM

C[C@@H](NC(=O)c1ccc(C(F)(F)F)cc1F)c1[nH]nc(-c2ccc(F)cc2)c1-c1ccncc1 [Example B-0508]
inhibition at 1 µM (TNF-α; Homo sapiens): 48%
IC50 (human p38 kinase alpha; [1]): 2000 nM

CN(C)CCn1cc(-c2ccnc(NCc3ccc(F)cc3)c2)c(-c2ccc(F)cc2)n1 [Example A-274, 4-[1-[2-(dimethylamino)ethyl]-3-(4-fluorophenyl)-1H-pyrazol-4-yl]-N-[(4-fluorophenyl)methyl]-2-pyridinamine]
IC50 (TNF-α; [3]): 920 nM
IC50 (human p38 kinase alpha; [4]): < 100 nM

C[C@@H](NC(=O)c1ccccc1Cl)c1[nH]nc(-c2ccc(F)cc2)c1-c1ccncc1 [Example B-0514]
inhibition at 1 µM (TNF-α; Homo sapiens): 87%
IC50 (human p38 kinase alpha; [1]): 140 nM

O=C(NCc1[nH]nc(-c2ccc(F)cc2)c1-c1ccncc1)c1ccccc1Cl [Example B-0289]
inhibition at 1 µM (TNF-α; Homo sapiens): 55%
IC50 (human p38 kinase alpha; [1]): 150 nM

O=S(=O)(NCc1[nH]nc(-c2ccc(F)cc2)c1-c1ccncc1)c1cc(Cl)cc(Cl)c1 [Example B-0241]
inhibition at 1 µM (TNF-α; Homo sapiens): 45%
IC50 (human p38 kinase alpha; [1]): 100 nM

C[C@@H](NC(=O)Cc1cccs1)c1[nH]nc(-c2ccc(F)cc2)c1-c1ccncc1 [Example B-0423]
inhibition at 1 µM (TNF-α; Homo sapiens): 33%
IC50 (human p38 kinase alpha; [1]): 180 nM

O=S(=O)(NCc1[nH]nc(-c2ccc(F)cc2)c1-c1ccncc1)c1cc(Cl)cc(Cl)c1O [Example B-0103]
inhibition at 1 µM (TNF-α; Homo sapiens): 6%
inhibition at 1 µM (human p38 kinase alpha; @ 1.0 uM): 71%

O=C(NCc1[nH]nc(-c2ccc(F)cc2)c1-c1ccncc1)c1cnc2ccccc2n1 [Example B-0206]
inhibition at 1 µM (TNF-α; Homo sapiens): 14%
IC50 (human p38 kinase alpha; [1]): 5760 nM

O=S(=O)(NCc1[nH]nc(-c2ccc(F)cc2)c1-c1ccncc1)c1ccc(F)cc1Cl [Example B-0231]
inhibition at 1 µM (TNF-α; Homo sapiens): 40%
IC50 (human p38 kinase alpha; [1]): 55 nM

O=C(NCc1[nH]nc(-c2ccc(F)cc2)c1-c1ccncc1)c1cc2ccccc2s1 [Example B-0271]
inhibition at 1 µM (TNF-α; Homo sapiens): 12%
IC50 (human p38 kinase alpha; [1]): 7550 nM

C[C@@H](NS(=O)(=O)c1ccccc1S(C)(=O)=O)c1[nH]nc(-c2ccc(F)cc2)c1-c1ccncc1 [Example B-0489]
inhibition at 1 µM (TNF-α; Homo sapiens): 80%
IC50 (human p38 kinase alpha; [1]): 300 nM

O=C(NCc1[nH]nc(-c2ccc(F)cc2)c1-c1ccncc1)c1ccc(Cl)nc1 [Example B-0052]
inhibition at 1 µM (TNF-α; Homo sapiens): 15%
inhibition at 1 µM (human p38 kinase alpha; @ 1.0 uM): 92%

C[C@@H](NC(=O)c1cc(F)cc(C(F)(F)F)c1)c1[nH]nc(-c2ccc(F)cc2)c1-c1ccncc1 [Example B-0513]
inhibition at 1 µM (TNF-α; Homo sapiens): 52%
IC50 (human p38 kinase alpha; [1]): 720 nM

O=S(=O)(NCc1[nH]nc(-c2ccc(F)cc2)c1-c1ccncc1)c1ccccc1Cl [Example B-0240]
inhibition at 1 µM (TNF-α; Homo sapiens): 70%
IC50 (human p38 kinase alpha; [1]): 200 nM

C[C@@H](NC(=O)c1c(F)cc(F)cc1F)c1[nH]nc(-c2ccc(F)cc2)c1-c1ccncc1 [Example B-0507]
inhibition at 1 µM (TNF-α; Homo sapiens): 75%
IC50 (human p38 kinase alpha; [1]): 180 nM

CC(C)c1ccc(S(=O)(=O)N[C@H](C)c2[nH]nc(-c3ccc(F)cc3)c2-c2ccncc2)cc1 [Example B-0446]
inhibition at 1 µM (TNF-α; Homo sapiens): 80%
IC50 (human p38 kinase alpha; [1]): 780 nM

O=C(NCc1[nH]nc(-c2ccc(F)cc2)c1-c1ccncc1)c1cccc(C(F)(F)F)c1F [Example B-0285]
inhibition at 1 µM (TNF-α; Homo sapiens): 29%
IC50 (human p38 kinase alpha; [1]): 4570 nM

Cc1cc(C)c(S(=O)(=O)N[C@H](C)c2[nH]nc(-c3ccc(F)cc3)c2-c2ccncc2)c(C)c1 [Example B-0439]
inhibition at 1 µM (TNF-α; Homo sapiens): 65%
IC50 (human p38 kinase alpha; [1]): 2120 nM

O=C(NCc1[nH]nc(-c2ccc(F)cc2)c1-c1ccncc1)c1cccnc1 [Example B-0200]
inhibition at 1 µM (TNF-α; Homo sapiens): 16%
IC50 (human p38 kinase alpha; [1]): 1310 nM

CSc1cccc(NC(=O)NCc2[nH]nc(-c3ccc(F)cc3)c2-c2ccncc2)c1 [Example B-0145]
inhibition at 1 µM (TNF-α; Homo sapiens): 12%
inhibition at 10 µM (human p38 kinase alpha; @ 10.0 uM): 54%

C[C@@H](NC(=O)c1cccc(F)c1)c1[nH]nc(-c2ccc(F)cc2)c1-c1ccncc1 [Example B-0517]
inhibition at 1 µM (TNF-α; Homo sapiens): 52%
IC50 (human p38 kinase alpha; [1]): 94 nM

C[C@@H](NS(=O)(=O)[C@@]12CC[C@H](CC1=O)C2(C)C)c1[nH]nc(-c2ccc(F)cc2)c1-c1ccncc1 [Example B-0472]
inhibition at 1 µM (TNF-α; Homo sapiens): 54%
IC50 (human p38 kinase alpha; [1]): 190 nM

C[C@@H](NS(=O)(=O)c1ccccc1Br)c1[nH]nc(-c2ccc(F)cc2)c1-c1ccncc1 [Example B-0454]
inhibition at 1 µM (TNF-α; Homo sapiens): 80%

C[C@@H](NS(=O)(=O)c1cc(Cl)cc(Cl)c1)c1[nH]nc(-c2ccc(F)cc2)c1-c1ccncc1 [Example B-0464]
inhibition at 1 µM (TNF-α; Homo sapiens): 91%

C[C@@H](NC(=O)c1ccc(F)cc1F)c1[nH]nc(-c2ccc(F)cc2)c1-c1ccncc1 [Example B-0524]
inhibition at 1 µM (TNF-α; Homo sapiens): 77%

C[C@@H](NS(=O)(=O)c1cccc(Cl)c1Cl)c1[nH]nc(-c2ccc(F)cc2)c1-c1ccncc1 [Example B-0445]
inhibition at 1 µM (TNF-α; Homo sapiens): 83%

Cc1noc(C)c1S(=O)(=O)NCCCc1[nH]nc(-c2ccc(F)cc2)c1-c1ccncc1 [Example B-1281]
U937 Cell % inhib @ conc. (uM) (TNF-α; @ 1.0 uM, TNF production, LPS-stimulated U937 cells): 8.0% @ 1.0 uM

C[C@@H](NS(=O)(=O)/C=C/c1ccccc1)c1[nH]nc(-c2ccc(F)cc2)c1-c1ccncc1 [Example B-0388]
inhibition at 1 µM (TNF-α; Homo sapiens): 36%

C[C@@H](NC(=O)N(C)c1ccccc1)c1[nH]nc(-c2ccc(F)cc2)c1-c1ccncc1 [Example B-0409]
inhibition at 1 µM (TNF-α; Homo sapiens): 30%

C[C@@H](NC(=O)c1cccc(F)c1F)c1[nH]nc(-c2ccc(F)cc2)c1-c1ccncc1 [Example B-0518]
inhibition at 1 µM (TNF-α; Homo sapiens): 64%

CCN(CC)C(=O)N[C@H](C)c1[nH]nc(-c2ccc(F)cc2)c1-c1ccncc1 [Example B-0420]
inhibition at 1 µM (TNF-α; Homo sapiens): 49%

C[C@@H](NS(=O)(=O)c1ccc2ccccc2c1)c1[nH]nc(-c2ccc(F)cc2)c1-c1ccncc1 [Example B-0440]
inhibition at 1 µM (TNF-α; Homo sapiens): 63%
